Reference: patent US20190169218A1, “AMPHIPATHIC COMPOUND HAVING NOVEL PENTA-SACCHARIDE HYDROPHILIC GROUP AND USE THEREOF” (Industry-University Cooperation Foundation Hanyang …, priority 2016, published 2019)

Tests used:
[1] = hydrodynamic radius of micelles by dynamic light scattering (DLS); format: physicochemical; settings: compound at 1.0 wt %
Experimental: Methods of measuring the radius of micelles are not particularly limited, and methods widely known in the art may be used. For example, dynamic light scattering (DLS) may be used.
(§1) Specifically, critical micellar concentrations (CMCs) were measured using hydrophobic fluorescent staining and diphenylhexatriene (DPH), and the hydrodynamic radii (Rh) of micelles formed by each compound at a concentration of 1.0 wt % were measured using dynamic light scattering (DLS). The results were compared with results obtained from an existing amphipathic molecule (detergent), DDM, and are shown in Table 1.
When measuring, each of PSAs, PSEs and TPSs was used at a concentration of 1.0 wt %.

[2] = biological target: T1, boron transporter (BOR1) BOR1-GFP fusion protein (Arabidopsis thaliana, UniProt Q8VYR7); experiment: structural (thermal) stability of solubilized BOR1-GFP by fluorescence-based size exclusion chromatography (FSEC); settings: heated at 40° C. for 10 minutes, 1 wt % compound
T1 construct: made in house; host or cells: Saccharomyces cerevisiae FGY217
Experimental: The ability of PSAs or PSEs to stabilize the structure of boron transporter (BOR1) was measured in an aqueous solution. That is, the BOR1 protein solubilized in each amphipathic compound was denatured by heating, and then structural stability of BOR1 was measured using fluorescence-based size exclusion chromatography (FSEC).
(§2) Specifically, Arabidopsis thaliana-derived BOR1 was expressed in the form of a fusion protein having a GFP tag at the C-terminus in Saccharomyces cerevisiae FGY217 cells. The cells were grown in an URA-medium supplemented with 0.1% glucose. 2% galactose was added to the cell culture to induce protein expression and the cells were cultured at 20° C. for 18 hours (see Drew, D. et al., Nat. Protoc. 2008, 3, 784-798.). After culture, the cells were harvested and used to obtain the cell membranes (see Leung, J. et al., Protein Expr. Purif. 2010, 72, 139-146.). Membranes containing BOR1-GFP fusion proteins were diluted to a final total protein concentration of 2.8 mg/mL in PBS (pH7.4) supplemented with 1 wt % DDM, 1 wt % PSAs (PSA-C9, PSA-C10 or PSA-C11) or 1 wt % PSEs (PSE-C9, PSE-C11 or PSE-C13). The diluted samples were incubated at 4° C. for 1 hour with gentle shaking, and insoluble substances were removed by centrifugation at 14,000 g for 1 hour at 4° C. Supernatants containing the dissolved protein samples were incubated for 10 minutes at the specified temperature (35, 40, 45 or 50° C.), and strongly agglutinated proteins were removed by centrifugation at 14,000 g for 10 minutes at 4° C. 200 μL aliquots were taken from the supernatant and injected into a Superose 6 10/300 column equilibrated with 20 mM Tris-HCl (pH 7.5), 150 mM NaCl and 0.03% DDM. Each elution fraction was collected from a retention volume of 6.4 mL (i.e., after 6.4 mL of solution had passed), and added to a well of a clear bottom 96-well plate at a volume of 200 μL. GFP fluorescence generated in each fraction was measured using an excitation wavelength of 470 nm and an emission wavelength of 512 nm.

[3] = biological target: T1, boron transporter (BOR1) BOR1-GFP fusion protein; experiment: solubilization (extraction) of BOR1-GFP fusion protein from membranes; settings: amphipathic compound at 1.0 wt %
Experimental: The ability of PSAs and PSEs to solubilize membrane proteins and to stabilize the structures of membrane proteins was evaluated using boron transporter (BOR1), a membrane protein. BOR1 was isolated from Arabidopsis thaliana, and was expressed in the form of a fusion protein having a GFP tag at the C-terminus in Saccharomyces cerevisiae FGY217 cells. This fusion protein has been proven to have boron transporting activity and is therefore involved in both structural and functional analysis of membrane proteins.
The ability of amphipathic compound PSAs and PSEs to solubilize the boron transporter (BOR1) membrane protein was evaluated.
Specifically, membranes containing BOR1-GFP fusion proteins were treated with an existing amphipathic compound (DDM), PSAs (PSA-C9, PSA-C10 and PSA-C11), or PSEs (PSE-C9, PSE-C11 and PSE-C13) at a concentration of 1.0 wt %. The solubilization efficiencies of PSA-C9, PSA-C10 and PSE-C9 were about 80% similar to the solubilization efficiency of DDM. In particular, the BOR1-GFP protein was quantitatively extracted (˜100%) using PSE-C11 having medium length chains, thus confirming that PSE-C11 is particularly useful for solubilization of BOR1-GFP.
as §2

[4] = critical micelle concentration (CMC) by hydrophobic fluorescent staining with diphenylhexatriene (DPH); format: physicochemical
Source text: Methods of measuring CMC are not particularly limited, and methods widely known in the art may be used. For example, a fluorescence staining method using diphenylhexatriene (DPH) may be used.
To characterize PSAs of Preparation Examples 1 to 3 synthesized according to the synthetic method of Example 1; PSEs of Preparation Examples 4 to 7 synthesized according to the synthetic method of Example 2; TPS-Es and TPS-ELs of Preparation Examples 8 to 14 synthesized according to the synthetic method of Example 3; and TPS-As of Preparation Examples 15 to 17 synthesized according to the synthetic method of Example 4, the critical micellar concentrations (CMCs) of PSAs, PSEs and TPSs and the hydrodynamic radii (Rh) of formed micelles were measured.
as §1

[5] = biological target: T2, Salmonella typhimurium melibiose permease (MelB) (Salmonella typhimurium, UniProt P30878); experiment: MelB extraction efficiency and thermal stability by SDS-PAGE and western immunoblotting; settings: 1.5 wt %, 0° C., 90 minutes (similar results at 45° C.)
T2 construct: made in house; host or cells: DW2 cells (melB and lacZY), Salmonella typhimurium DW2; plasmid pK95AHB/WT MelBst/CH10
Experimental: The ability of PSAs or PSEs to extract (solubilize) MelBst (Salmonella typhimurium melibiose permease) proteins and stabilize the structures thereof was measured. MelB proteins were extracted using PSAs, PSEs or DDM, and the amount of the extracted proteins and structural stability thereof were quantitatively analyzed by SDS-PAGE and western immunoblotting. The protein extraction efficiency and thermally stabilizing ability of the amphipathic compounds were simultaneously evaluated by extracting MelB proteins at four temperatures (0, 45, 55 or 65° C.) for 90 minutes using the amphipathic compounds at a concentration of 1.5 wt %.
Specifically, according to the method described in the journal article (P. S. Chae, et al., Chemistry. 2013, 19, 15645-15651.) published by the present inventors, proteins (MelBst) were produced using a plasmid pK95AHB/WT MelBst/CH10 containing a gene construct encoding wild-type MelB having 10×His tags at the C-terminus and Salmonella typhimurium DW2 cells (melB and lacZY). According to the method described in the journal article (A. S. Ethayathulla et al., Nat. Commun. 2014, 5, 3009), cells were cultured and the cell membranes were obtained from the cultured cells. Protein analysis was performed using a Micro BCA kit (Thermo Scientific, Rockford, Ill.). To measure solubilization/stability, membrane samples (the final concentration of membrane proteins was 10 mg/mL) containing MelBst were mixed with a solubilization buffer solution (20 mM sodium phosphate, pH 7.5, 200 mM NaCl, 10% glycerol and 20 mM melibiose) containing DDM, PSAs (PSA-C11) or PSEs (PSE-C9, PSE-C11, PSE-C13) at a concentration of 1.5% (w/v). Extracts were incubated at four different temperatures (0, 45, 55 and 65° C.) for 90 minutes. Fractions were removed by ultracentrifugation at 355,590 g for 45 minutes using a Beckman Optima™ MAX ultracentrifuge equipped with a No. 4 TLA-100 rotor. 20 μg of proteins was separated using a 15% SDS-PAGE gel. Next, immunoblotting was performed using Penta-His-HRP antibodies (Qiagen, Germantown, Md.). After performing SDS-PAGE and immunoblotting, the amount of solubilized MelB was quantitated and expressed as a percentage of the amount of MelB measured in the control group.

T2 sequence (P30878 whole entry): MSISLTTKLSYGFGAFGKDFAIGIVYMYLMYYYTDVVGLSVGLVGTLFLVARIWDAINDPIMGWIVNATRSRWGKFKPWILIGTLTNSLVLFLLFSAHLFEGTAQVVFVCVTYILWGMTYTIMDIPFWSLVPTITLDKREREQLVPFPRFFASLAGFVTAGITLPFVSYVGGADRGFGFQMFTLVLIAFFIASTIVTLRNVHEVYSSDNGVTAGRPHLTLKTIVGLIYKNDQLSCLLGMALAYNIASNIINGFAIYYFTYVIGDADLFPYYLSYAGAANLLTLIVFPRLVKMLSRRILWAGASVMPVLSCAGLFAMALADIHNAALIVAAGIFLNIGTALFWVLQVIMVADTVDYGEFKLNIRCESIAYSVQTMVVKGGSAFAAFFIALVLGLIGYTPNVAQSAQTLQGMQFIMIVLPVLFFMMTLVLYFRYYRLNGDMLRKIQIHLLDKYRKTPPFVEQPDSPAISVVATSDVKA

Row | SMILES | Rh (nm), hydrodynamic radius of micelles [1] [nm] | structural stability of solubilized BOR1-GFP after heating (RFU, FSEC) [2] | solubilization efficiency of BOR1-GFP [3] | CMC [4] [mM] | CMC (wt %) [4] [wt %] | MelB extraction efficiency [5]
1 | CCCCCCCCCCC(CCCCCCCCCC)CO[C@@H]1OC(CO[C@@H]2OC(CO)[C@@H](O)C(O)C2O)[C@@H](O[C@@H]2OC(CO)[C@@H](O)C(O)C2O)C(O[C@@H]2OC(CO)[C@@H](O)C(O)C2O)C1O[C@@H]1OC(CO)[C@@H](O)C(O)C1O (stereo partly drawn) [PSA-C10] | 3.10 ± 0.05 | remarkably improved as compared to DDM and PSA-C9 | about 80% | ~0.009 | ~0.0010 | 
2 | CCCCCCCCCOCC(COCCCCCCCCC)O[C@@H]1OC(CO[C@@H]2OC(CO)[C@@H](O)C(O)C2O)[C@@H](O[C@@H]2OC(CO)[C@@H](O)C(O)C2O)C(O[C@@H]2OC(CO)[C@@H](O)C(O)C2O)C1O[C@@H]1OC(CO)[C@@H](O)C(O)C1O (stereo partly drawn) [PSE-C9] | 3.19 ± 0.04 | greatly improved compared to DDM | about 80% | ~0.026 | ~0.0030 | extracted at an efficiency similar to the efficiency observed in the case of DDM
3 | CCCCCCCCCC(CCCCCCCCC)CO[C@@H]1OC(CO[C@@H]2OC(CO)[C@@H](O)C(O)C2O)[C@@H](O[C@@H]2OC(CO)[C@@H](O)C(O)C2O)C(O[C@@H]2OC(CO)[C@@H](O)C(O)C2O)C1O[C@@H]1OC(CO)[C@@H](O)C(O)C1O (stereo partly drawn) [PSA-C9] | 2.94 ± 0.05 |  | about 80% | ~0.014 | ~0.0016 | 
